These results are taken from article PMC4163096 (Bioorganic & medicinal chemistry letters, 2014).

Where two headings read alike, the source gives them in different places.

In data set [1] the target is T1, TSPO (Rattus norvegicus, UniProt P16257). The following applies: cited from earlier work; for Ki: read-out: Ki for TSPO in C6 glioma, C6 glioma.
A short description of data set [2]: Radio-TLC analysis of plasma samples taken during PET scan. The following applies: samples at 2, 12, 30, 60 min, n=2, preliminary. The format is in vivo, male Wistar rats.
The target in data set [3] is T1, TSPO. The experiment in a line: Radiometric TSPO binding assay, [3H]PK11195 displacement in heart lysate. On the set-up: species or system athymic nude rat. The following applies: for Ki: read-out: Heart Ki, versus [3H]PK11195, Ki ± S.E.M., triplicate.
In data set [4] the target is T1, TSPO. The data set can be described thus: Radiometric TSPO binding assay, [3H]PK11195 displacement in kidney lysate. The settings on record: read-out: Kidney Ki, low-affinity binding (mixed affinity binding), versus [3H]PK11195, Ki ± S.E.M., low-affinity component. On the set-up: species or system athymic nude rat.

Take `CCc1cc(CC)n2nc(-c3ccc(OCCF)cc3)c(CC(=O)N(CC)CC)c2n1` [2b]: the Ki (in general, the dissociation constant of the complex between target and ligand, obtained from inhibition or displacement) at TSPO [1] was 0.27 nM.
In the case of `CCc1cc(CC)n2nc(-c3ccc(OCC[18F])cc3)c(CC(=O)N(CC)CC)c2n1` [[^18F]-2b, 2-(5,7-diethyl-2-(4-(2-[^18F]fluoroethoxy)phenyl)pyrazolo[1,5-a]pyrimidin-3-yl)-N,N– diethylacetamide], the “enhancement in affinity compared to [18F]-2a” value on TSPO [1] (TSPO affinity) is 36 fold.
With `CN(C)C(=O)Cc1nn(-c2cccc([18F])n2)c(=O)c2c1c1ccc(Cl)cc1n2C` [[^18F]-14, 7-chloro-N,N,5-trimethyl-4-oxo-3(6-[^18F]fluoropyridin-2-yl)-3,5-dihydro-4H-pyridazino[4,5-b]indole-1-acetamide], the “% parent at 60 min” value in data set [2] is on record as over 90%.
As to `COc1ccc(OC)c(CN(C(=O)CF)c2ccccc2Oc2ccccc2)c1` [compound 1], the Ki at TSPO [1] is 6.17 nM.
For `CN(C)C(=O)Cc1nn(-c2cccc([N+](=O)[O-])c2)c(=O)c2c1c1ccc(Cl)cc1n2C` [compound 11], on TSPO [3], the inhibition constant Ki stood at 0.00118 ± 9e-05 nM.
Take `CN(C)C(=O)Cc1nn(-c2ccc(F)cc2)c(=O)c2c1c1ccc(Cl)cc1n2C` [compound 12]: the Ki at TSPO [4] was 0.969 nM.
For `CN(C)C(=O)Cc1nn(-c2ccccn2)c(=O)c2c1c1ccc(Cl)cc1n2C` [compound 13], the inhibition constant Ki at TSPO [3] worked out at 4.94 ± 0.662 nM. Also, the “Heart Ki” value at TSPO [3] (versus [3H]PK11195, Ki ± S.E.M., triplicate) is “did not appreciably bind TSPO”.
